Data on 14 molecules can be found in patent US8765727B2, “Macrocyclic compounds and their use as kinase inhibitors” (Incyte Corporation, priority 2009, dated 2014).

Counter-ions that a name gives are not always drawn.

Type in all cases: biochemical
The target in one assay is TYK2 (Homo sapiens (Human), UniProt P29597). Put plainly: TYK2 assay (as described by Thompson et al.). The source says:
The invention will be described in greater detail by way of specific examples. The following examples are offered for illustrative purposes, and are not intended to limit the invention in any manner. Those of skill in the art will readily recognize a variety of non-critical parameters which can be changed or modified to yield essentially the same results. In some instances where the compounds of the examples were isolated by preparative HPLC in the presence of trifluoroacetic acid (TFA) or other acid, the compound may have been obtained as the corresponding salt. […] Certain compounds described in Tables 1 and in the Example section were tested for inhibitory activity of JAK/ALK targets according to assays such as those described herein or those known in the art [e.g., ALK assays described in WO 04/079326; and TYK2 assays described by James E. Thompson et. al, “Photochemical preparation of a pyridone containing tetracycle: A JAK protein kinase inhibitor,” Bioorganic & Medicinal Chemistry Letters, Volume 12, Issue 8, 22 Apr. 2002, Pages 1219-1223]. […] Some exemplary data of the compounds of the invention are shown in Table 1 in the experimental section.

The target in assay [1] is human JAK2 (a.a. 828-1132) catalytic domain (Homo sapiens (Human), UniProt O60674). The assay can be described thus: In vitro JAK kinase assay (HTRF), JAK2. The following applies: 30 μM ATP, 500 nM peptide, room temperature 1 hr. The method, then: One or more compounds herein were tested for inhibitory activity of JAK targets according to the following in vitro assay described in Park et al., Analytical Biochemistry 1999, 269, 94-104. The catalytic domains of human JAK1 (a.a. 837-1142), JAK2 (a.a. 828-1132) and JAK3 (a.a. 781-1124) with an N-terminal His tag were expressed using baculovirus in insect cells and purified. The catalytic activity of JAK1, JAK2 or JAK3 was assayed by measuring the phosphorylation of a biotinylated peptide. The phosphorylated peptide was detected by homogenous time resolved fluorescence (HTRF). […] Binding to the Europium labeled antibody took place for 40 minutes and HTRF signal was measured on a Fusion plate reader (Perkin Elmer, Boston, Mass.).
human JAK2 (a.a. 828-1132) catalytic domain, sequence (O60674 828-1132): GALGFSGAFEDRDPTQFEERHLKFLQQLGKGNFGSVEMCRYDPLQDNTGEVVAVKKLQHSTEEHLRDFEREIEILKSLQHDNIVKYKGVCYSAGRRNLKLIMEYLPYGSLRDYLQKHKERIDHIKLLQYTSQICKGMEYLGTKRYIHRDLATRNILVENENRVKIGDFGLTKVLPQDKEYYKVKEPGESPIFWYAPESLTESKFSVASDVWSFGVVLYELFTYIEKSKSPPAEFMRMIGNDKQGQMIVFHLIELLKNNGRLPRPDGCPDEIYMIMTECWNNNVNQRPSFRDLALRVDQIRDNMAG
In general terms: In TR-FRET formats the signal depends on donor and acceptor labels being close together.

Assay [2] has as its target Recombinant Human Anaplastic Lymphoma Kinase (Homo sapiens (Human), UniProt Q9UM73). Put plainly: ALK HTRF kinase assay. The following applies: 90 μM ATP, 0.25 nM enzyme, 2 hours at 25° C. The method, then: Materials: Recombinant Human Anaplastic Lymphoma Kinase was purchased from Invitrogen, Carlsbad, Calif. Peptide substrate (Biotin-[…]-amide) was custom synthesized at EZBiolab, Westfield, Ind. Streptavidin conjugated SureLight-Allophycocyania and LANCE Eu-W1024 labeled anti-phosphotyrosine antibody were from Perkin-Elmer, Boston, Mass. Microplates were from Corning Inc., Acton, Mass. All other reagents were from Sigma, St. Louis, Mo.
HTRF kinase assay: 40 μL reactions were run in black 384 well polystyrene plates in assay buffer (50 mM Tris, pH 7.8, 100 mM NaCI, 0.1 mg/mL BSA, 5 mM DTT), containing 0.5 μM Biotinylated peptide substrate, 10 mM MgCl2, 90 μM ATP, and 0.25 nM enzyme for 2 hours at 25° C. Reactions were stopped by addition of 20 μL assay buffer supplemented with an additional 50 mM NaCl, 0.4 mg/mL BSA, 45 mM EDTA, 4.5 nM LANCE Eu-W1024 labeled anti-phosphotyrosine antibody and 200 nM streptavidin conjugated SureLight-allophycocyanin. Plates were read in Fusion α-FP instrument (Perkin-Elmer). The concentrations needed to reach 50% inhibition, the IC50 value, were determined by fitting the assay signal to the following equation using Graphpad Prizm. Signal=Bottom+(Top−Bottom)/(1+10^((Log(IC50)−Log [I])*Hill Slope) Bottom and Top refer to the post and pre-transition baselines, respectively.

In assay [3] the target is human JAK3 (a.a. 781-1124) catalytic domain (Homo sapiens (Human), UniProt P52333). Put plainly: In vitro JAK kinase assay (HTRF), JAK3. The following applies: 3 μM ATP, 500 nM peptide, room temperature 1 hr. On the procedure: (§1) One or more compounds herein were tested for inhibitory activity of JAK targets according to the following in vitro assay described in Park et al., Analytical Biochemistry 1999, 269, 94-104. The catalytic domains of human JAK1 (a.a. 837-1142), JAK2 (a.a. 828-1132) and JAK3 (a.a. 781-1124) with an N-terminal His tag were expressed using baculovirus in insect cells and purified. The catalytic activity of JAK1, JAK2 or JAK3 was assayed by measuring the phosphorylation of a biotinylated peptide. The phosphorylated peptide was detected by homogenous time resolved fluorescence (HTRF). […] The ATP concentration in the reactions was 90 μM for JAK1, 30 μM for JAK2 and 3 μM for JAK3. Reactions were carried out at room temperature for 1 hr and then stopped with 20 μL 45 mM EDTA, 300 nM SA-APC, 6 nM Eu-Py20 in assay buffer (Perkin Elmer, Boston, Mass.). Binding to the Europium labeled antibody took place for 40 minutes and HTRF signal was measured on a Fusion plate reader (Perkin Elmer, Boston, Mass.).
human JAK3 (a.a. 781-1124) catalytic domain, sequence (P52333 781-1124): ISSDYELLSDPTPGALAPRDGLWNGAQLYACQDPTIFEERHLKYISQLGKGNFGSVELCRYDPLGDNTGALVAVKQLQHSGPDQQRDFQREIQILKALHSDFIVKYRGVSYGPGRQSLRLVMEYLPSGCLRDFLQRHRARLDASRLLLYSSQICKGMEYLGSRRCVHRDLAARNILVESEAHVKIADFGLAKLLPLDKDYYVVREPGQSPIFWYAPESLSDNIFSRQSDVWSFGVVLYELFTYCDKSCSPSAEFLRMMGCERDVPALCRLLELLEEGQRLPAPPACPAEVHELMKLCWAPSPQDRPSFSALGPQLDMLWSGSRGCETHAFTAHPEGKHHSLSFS

The target of assay [4] is human JAK1 (a.a. 837-1142) catalytic domain (Homo sapiens, UniProt P23458). The assay can be described thus: In vitro JAK kinase assay (HTRF), JAK1. The following applies: 90 μM ATP, 500 nM peptide, room temperature 1 hr. The method, then:
as §1

Recombinant Human Anaplastic Lymphoma Kinase, sequence (Q9UM73 19-1620): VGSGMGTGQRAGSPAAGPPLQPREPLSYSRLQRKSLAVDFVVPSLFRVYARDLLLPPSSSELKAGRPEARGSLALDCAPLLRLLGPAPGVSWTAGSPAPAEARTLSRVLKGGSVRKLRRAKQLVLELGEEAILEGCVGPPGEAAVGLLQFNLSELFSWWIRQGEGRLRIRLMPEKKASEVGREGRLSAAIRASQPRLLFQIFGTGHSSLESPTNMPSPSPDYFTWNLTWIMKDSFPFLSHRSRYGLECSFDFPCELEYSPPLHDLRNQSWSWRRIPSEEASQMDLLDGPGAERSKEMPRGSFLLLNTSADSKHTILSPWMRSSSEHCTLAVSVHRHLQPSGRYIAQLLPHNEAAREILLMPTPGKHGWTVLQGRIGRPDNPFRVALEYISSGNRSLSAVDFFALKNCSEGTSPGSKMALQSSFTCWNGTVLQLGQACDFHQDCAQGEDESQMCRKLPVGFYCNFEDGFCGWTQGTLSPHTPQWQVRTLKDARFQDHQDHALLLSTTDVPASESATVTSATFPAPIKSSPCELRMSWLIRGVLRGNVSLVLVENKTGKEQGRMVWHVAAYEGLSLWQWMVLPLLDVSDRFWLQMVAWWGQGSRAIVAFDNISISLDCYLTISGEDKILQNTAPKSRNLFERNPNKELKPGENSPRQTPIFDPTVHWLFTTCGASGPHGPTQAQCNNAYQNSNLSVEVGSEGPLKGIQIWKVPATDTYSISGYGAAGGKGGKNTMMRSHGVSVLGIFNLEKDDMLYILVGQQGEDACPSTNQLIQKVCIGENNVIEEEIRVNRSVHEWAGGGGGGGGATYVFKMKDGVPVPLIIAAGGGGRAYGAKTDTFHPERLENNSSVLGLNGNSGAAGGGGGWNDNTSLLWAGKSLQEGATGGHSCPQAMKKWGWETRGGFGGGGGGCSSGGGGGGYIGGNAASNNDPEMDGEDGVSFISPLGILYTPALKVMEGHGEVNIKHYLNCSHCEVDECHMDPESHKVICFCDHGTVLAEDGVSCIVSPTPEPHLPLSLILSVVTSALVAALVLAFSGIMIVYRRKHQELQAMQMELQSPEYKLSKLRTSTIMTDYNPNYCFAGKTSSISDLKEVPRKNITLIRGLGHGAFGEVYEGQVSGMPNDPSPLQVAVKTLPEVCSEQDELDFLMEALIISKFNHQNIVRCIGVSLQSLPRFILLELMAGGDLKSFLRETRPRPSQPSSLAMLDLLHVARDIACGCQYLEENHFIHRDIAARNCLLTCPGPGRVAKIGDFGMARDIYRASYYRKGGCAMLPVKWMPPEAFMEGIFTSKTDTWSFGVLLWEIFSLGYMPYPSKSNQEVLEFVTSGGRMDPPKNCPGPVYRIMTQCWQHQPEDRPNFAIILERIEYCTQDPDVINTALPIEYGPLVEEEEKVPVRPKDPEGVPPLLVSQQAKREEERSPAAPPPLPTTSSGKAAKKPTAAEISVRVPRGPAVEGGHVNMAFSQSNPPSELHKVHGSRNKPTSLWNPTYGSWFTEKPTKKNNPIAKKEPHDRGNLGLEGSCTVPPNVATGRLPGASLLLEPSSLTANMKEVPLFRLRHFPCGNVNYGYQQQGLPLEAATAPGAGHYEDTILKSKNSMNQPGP
TYK2, sequence (P29597 whole entry, species assumed): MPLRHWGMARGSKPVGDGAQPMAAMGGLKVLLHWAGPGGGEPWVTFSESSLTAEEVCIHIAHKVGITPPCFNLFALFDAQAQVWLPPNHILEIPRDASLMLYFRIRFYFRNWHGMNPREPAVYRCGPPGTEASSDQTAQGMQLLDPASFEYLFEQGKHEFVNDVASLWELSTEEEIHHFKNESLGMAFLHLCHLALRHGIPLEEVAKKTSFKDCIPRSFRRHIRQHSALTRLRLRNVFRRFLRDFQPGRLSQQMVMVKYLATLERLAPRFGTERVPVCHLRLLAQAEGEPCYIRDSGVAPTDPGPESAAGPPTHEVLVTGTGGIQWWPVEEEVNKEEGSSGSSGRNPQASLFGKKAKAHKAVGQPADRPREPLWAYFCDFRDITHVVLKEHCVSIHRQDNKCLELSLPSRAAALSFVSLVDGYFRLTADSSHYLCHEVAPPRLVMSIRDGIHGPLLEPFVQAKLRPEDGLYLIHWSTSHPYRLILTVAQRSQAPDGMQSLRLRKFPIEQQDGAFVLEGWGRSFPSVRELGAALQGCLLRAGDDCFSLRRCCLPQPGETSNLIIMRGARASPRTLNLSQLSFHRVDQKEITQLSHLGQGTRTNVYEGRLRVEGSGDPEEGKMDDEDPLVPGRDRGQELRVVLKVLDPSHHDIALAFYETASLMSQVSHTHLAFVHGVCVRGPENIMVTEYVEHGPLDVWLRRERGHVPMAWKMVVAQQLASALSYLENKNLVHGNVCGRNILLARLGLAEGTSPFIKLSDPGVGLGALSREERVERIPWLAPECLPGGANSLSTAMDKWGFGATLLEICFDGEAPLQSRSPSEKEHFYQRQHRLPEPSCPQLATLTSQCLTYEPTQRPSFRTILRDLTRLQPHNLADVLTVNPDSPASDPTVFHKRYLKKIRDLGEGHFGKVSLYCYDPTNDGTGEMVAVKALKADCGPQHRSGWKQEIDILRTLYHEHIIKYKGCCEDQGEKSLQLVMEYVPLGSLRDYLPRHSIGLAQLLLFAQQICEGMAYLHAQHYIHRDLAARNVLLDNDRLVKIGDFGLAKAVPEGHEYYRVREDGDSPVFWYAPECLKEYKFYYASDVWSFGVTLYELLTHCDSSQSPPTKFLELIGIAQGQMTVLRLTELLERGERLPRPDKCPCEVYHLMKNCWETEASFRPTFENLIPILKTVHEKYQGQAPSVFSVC

`Clc1cnc2nc1NCc1cc(Br)cc(c1)OCCCc1cccc(c1)N2` [Example 16, 12-Bromo-6-chloro-15-oxa-2,4,8,25-tetraazatetracyclo[17.3.1.1(3,7).1(10,14)]pentacosa-1(23),3(25),4,6,10(24),11,13,19,21-nonaene]: the values for the IC50 (at TYK2; in assay [1]; in assay [2]) were 149 nM, 5 nM and 280 nM, respectively.
Take `O=S1(=O)Nc2cccc(c2)CNc2nc(ncc2Cl)Nc2cccc1c2` [Example 3, 6-Chloro-16-thia-2,4,8,15,23-pentaazatetracyclo[15.3.1.1(3,7).1(10,14)]tricosa-1(21),3(23),4,6,10(22),11,13,17,19-nonaene 16,16-dioxide trifluoroacetate]: the IC50 in assay [3] was 325 nM; at TYK2 it was 830 nM; in assay [4] it was 300 nM; in assay [2], more than 10000 nM.
With `O=C1Nc2cccc(c2)CNc2nc(ncc2Cl)Nc2cccc1c2` [Example 4, 6-Chloro-2,4,8,15,23-pentaazatetracyclo[15.3.1.1(3,7).1(10,14)]tricosa-1(21),3(23),4,6,10(22),11,13,17,19-nonaen-16-one trifluoroacetate], the IC50 was 21 nM in assay [3]; more than 1000 nM against TYK2; 96 nM in assay [4]; 104 nM in assay [1]; more than 10000 nM in assay [2].
In the same order, the values of `Clc1cnc2nc1NCc1cc(ccc1-c1ccccc1)OCCCc1cccc(c1)N2` [Example 15, 6-Chloro-11-phenyl-15-oxa-2,4,8,25-tetraazatetracyclo[17.3.1.1(3,7).1(10,14)]pentacosa-1(23),3(25),4,6,10(24),11,13,19,21-nonaene] are 31 nM, 400 nM, 81 nM, 41 nM and more than 1000 nM.
Take `Clc1cnc2nc1NCCc1cccc(c1)OCCc1cccc(c1)N2` [Example 9, 6-Chloro-16-oxa-2,4,8,25-tetraazatetracyclo[17.3.1.1(3,7).1(11,15)]pentacosa-1(23),3(25),4,6,11(24),12,14,19,21-nonaene]: the IC50 was 55 nM in assay [3]; 53 nM against TYK2; 28 nM in assay [4]; 23 nM in assay [1]; 1230 nM in assay [2].
In the case of `C[C@@H]1Nc2nc(ncc2Cl)Nc2cccc(c2)COc2cccc1c2` [Example 11, (9S)-6-Chloro-9-methyl-15-oxa-2,4,8,23-tetraazatetracyclo[15.3.1.1(3,7).1(10,14)]tricosa-1(21),3(23),4,6,10(22),11,13,17,19-nonaene trifluoroacetate], the concentration for half-maximal inhibition (IC50) in assay [3] is more than 1000 nM; at TYK2, more than 1000 nM; in assay [4], more than 1000 nM; in assay [1] it was more than 1000 nM; in assay [2], more than 10000 nM.
Regarding `Nc1ccc2cc1CCc1cncc(c1)Nc1ncc(Cl)c(n1)NC2` [Example 17, 6-Chloro-2,4,8,19,23-pentaazatetracyclo[15.3.1.1(3,7).1(10,14)]tricosa-1(21),3(23),4,6,10(22),11,13,17,19-nonaen-13-amine], the IC50 in assay [3] is 114 nM; against TYK2, 386 nM; in assay [4], 102 nM; in assay [1] it was 447 nM; in assay [2], more than 1000 nM.
In the same order, the values of `Clc1cnc2nc1NCc1cccc(c1)OCCOc1cccc(c1)N2` [Example 7, 6-Chloro-15,18-dioxa-2,4,8,25-tetraazatetracyclo[17.3.1.1(3,7).1(10,14)]pentacosa-1(23),3(25),4,6,10(24),11,13,19,21-nonaene trifluoroacetate] are 6.4 nM, 43 nM, 16 nM, 8.3 nM and 2050 nM.
For `N#Cc1ccccc1S(=O)(=O)Nc1ccc2cc1CCc1cncc(c1)Nc1ncc(Cl)c(n1)NC2` [Example 19, N-[6-Chloro-2,4,8,19,23-pentaazatetracyclo[15.3.1.1(3,7).1(10,14)]tricosa-1(21),3(23),4,6,10(22),11,13,17,19-nonaen-13-yl]-2-cyanobenzenesulfonamide bis(trifluoroacetate)] the same measures were more than 1000 nM, more than 1000 nM, more than 1000 nM, more than 1000 nM and more than 1000 nM.
In the same order, the values of `C[C@H]1Nc2nc(ncc2Cl)Nc2cccc(c2)COc2cccc1c2` [Example 6, (9R)-6-Chloro-9-methyl-15-oxa-2,4,8,23-tetraazatetracyclo[15.3.1.1(3,7).1(10,14)]tricosa-1(21),3(23),4,6,10(22),11,13,17,19-nonaene trifluoroacetate] are 140 nM, more than 1000 nM, 346 nM, 350 nM and more than 10000 nM.
In the case of `Clc1cnc2nc1NCCCc1cccc(c1)OCCc1cccc(c1)N2` [Example 13, 21-Chloro-10-oxa-2,19,23,24-tetraazatetracyclo[18.3.1.1(3,7).1(11,15)]hexacosa-1(24),3(26),4,6,11(25),12,14,20,22-nonaene], the 50% inhibitory concentration (IC50) in assay [3] was 62 nM; on TYK2, 106 nM; in assay [4], 32 nM; in assay [1], 25 nM; in assay [2], more than 10000 nM.
In the same order, the values of `Clc1cnc2nc1NCCCc1cccc(c1)OCc1cccc(c1)N2` [Example 10, 20-Chloro-9-oxa-2,18,22,23-tetraazatetracyclo[17.3.1.1(3,7).1(10,14)]pentacosa-1(23),3(25),4,6,10(24),11,13,19,21-nonaene] are 180 nM, 237 nM, 122 nM, 117 nM and more than 1000 nM.
On to `Clc1cnc2nc1NCCc1cccc(c1)OCCCc1cccc(c1)N2` [Example 12, 6-Chloro-16-oxa-2,4,8,26-tetraazatetracyclo[18.3.1.1(3,7).1(11,15)]hexacosa-1(24),3(26),4,6,11(25),12,14,20,22-nonaene], for which the IC50 in assay [3] was 315 nM; on TYK2 it was 400 nM; in assay [4], 300 nM; in assay [2], more than 10000 nM.
In the same order, the values of `Clc1cnc2nc1NCCc1cccc(c1)OCc1cccc(c1)N2` [Example 8, 19-Chloro-9-oxa-2,17,21,22-tetraazatetracyclo[16.3.1.1(3,7).1(10,14)]tetracosa-1(22),3(24),4,6,10(23),11,13,18,20-nonaene] are 300 nM, 438 nM, 600 nM and more than 10000 nM.

As usually defined, the IC50 is the concentration at which inhibition is half-maximal.
